Test results published in PMC4275256 (PLoS ONE, 2014).

Legend:
Details in all cases: read-out: Km[HCO3 ^-]; pH 8, 50 mM NaCl, 24 °C; labelled compound; corrected for respiratory Ci
SbtA6307 (SbtA1) = tested on: T1, SbtA6307 (SbtA1)
T1 construct: gene sbtA

SbtA7942 = molecular target: T2, SbtA7942 (Synechococcus elongatus, UniProt Q31N64)
T2 construct: gene Synpcc7942_1475

SbtA6803 = molecular target: T3, SbtA6803 (Synechocystis sp. PCC 6803, UniProt P73953)
T3 construct: gene slr1512

SbtA5701 (SbtA1) = tested on: T4, SbtA5701 (SbtA1)
T4 construct: gene sbtA

T2 sequence (Q31N64 1-373): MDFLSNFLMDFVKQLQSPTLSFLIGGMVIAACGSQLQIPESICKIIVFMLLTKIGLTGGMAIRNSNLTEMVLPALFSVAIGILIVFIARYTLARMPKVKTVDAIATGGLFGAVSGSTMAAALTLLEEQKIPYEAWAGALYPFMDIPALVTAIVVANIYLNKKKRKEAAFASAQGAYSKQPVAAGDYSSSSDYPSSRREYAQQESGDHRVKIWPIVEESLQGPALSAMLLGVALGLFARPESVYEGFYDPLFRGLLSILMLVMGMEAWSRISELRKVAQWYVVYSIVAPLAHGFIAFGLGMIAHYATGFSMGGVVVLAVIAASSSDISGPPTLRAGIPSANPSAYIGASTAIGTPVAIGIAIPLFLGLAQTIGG
T3 sequence (P73953 1-374): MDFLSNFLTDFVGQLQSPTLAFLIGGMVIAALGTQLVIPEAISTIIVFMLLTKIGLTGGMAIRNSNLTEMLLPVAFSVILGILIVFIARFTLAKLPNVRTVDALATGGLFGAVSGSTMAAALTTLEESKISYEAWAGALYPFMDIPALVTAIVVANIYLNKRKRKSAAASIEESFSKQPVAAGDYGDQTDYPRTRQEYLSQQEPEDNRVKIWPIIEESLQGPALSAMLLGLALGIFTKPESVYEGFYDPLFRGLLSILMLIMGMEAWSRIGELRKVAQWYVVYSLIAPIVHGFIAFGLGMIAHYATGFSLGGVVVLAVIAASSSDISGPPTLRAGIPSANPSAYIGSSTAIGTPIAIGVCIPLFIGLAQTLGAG

Km (SbtA6307 (SbtA1)): < 100 µM
Km (SbtA7942): < 100 µM
Km (SbtA6803): < 100 µM
Km (SbtA5701 (SbtA1)): < 100 µM
Compound: O=C(O)O [HCO3 ^-]
